Laboratory results taken from patent US10842762B2, “Method of treating cardiovascular events using colchicine concurrently with an antiplatelet agent” (Murray and Poole Enterprises, LTD., priority 2012, dated 2020).

Assays:
[1] = test system: patients with a first episode of recurrent pericarditis; conditions: at 18 months; conventional treatment with aspirin plus colchicine (1.0-2.0 mg first day, then 0.5-1.0 mg/d for 6 months); vs 50.6% with conventional treatment; cited from earlier work
[2] = test system: patients with objectively diagnosed and clinically stable coronary disease; assay: LoDoCo Trial: prospective randomized observer blinded end-point trial of colchicine 0.5 mg/day added to standard secondary prevention therapies
Description: To assess the therapeutic effects of an immediate release formulation in patients with cardiovascular disease, a prospective randomized observer blinded end-point trial was conducted to determine whether adding 0.5 mg/day of colchicine to standard secondary prevention therapies including aspirin and high dose statins reduces the risk of cardiovascular events in patients with objectively diagnosed and clinically stable coronary disease.
Eligible consenting patients with established coronary disease presenting for routine clinical review were randomized to receive colchicine 0.5 mg/day or no colchicine without any other change to their medical therapy. All outcomes were evaluated by an experienced adjudicator blinded to the treatment allocation.
It was planned to recruit a study population that would include 500 patients planned (532 patients randomized as 32 dropped out early), 250 randomized to the control group and 250 patients randomized to treatment who were tolerant of colchicine for at least 4 weeks after the date of their randomization. Patients were eligible for inclusion if they met each of the following criteria: 1) angiographically proven coronary disease; 2) aged 35 to 85 years; 3) clinically stable for at least 6 months, 4) no major competing co-morbidities or contra-indication to colchicine therapy, 5) considered to be compliant with therapy and attending routine cardiology follow up appointments, and 6) willing to be consented and randomized into the study. Patients with a history of bypass surgery were only eligible if they had undergone bypass surgery more than 10 years before, or had angiographic evidence of graft failure or had undergone stenting since their bypass surgery. All patients signed informed consent before randomization.
The randomization sequence was computer generated, kept concealed from the investigators at all times and was managed by a research assistant who had no involvement in the evaluation or management of study patients. […] Despite electing to use the lowest dose of colchicine available, it was anticipated that a number of patients would withdraw from therapy early after randomization due to gastrointestinal side effects. In order to ensure that the requisite number of patients in the treatment arm were actually tolerant of treatment, the protocol allowed for the research assistant to assign a newly recruited patient to treatment if a patient discontinued colchicine due to side effects in the first month. Patients who were intolerant to therapy remained in the study, and were followed in the usual manner and included in the primary intention to treat analysis.
The drug was dispensed by their usual chemist, and if requested, patients were reimbursed for the cost of these scripts. All other treatments were continued as usual.
Patient compliance with treatment and outcome data were collected at routine follow up visits and at the time of any unplanned hospital admission. An acute coronary syndrome (ACS) was defined as either (a) Acute Myocardial Infarction (AMI), as evidenced by acute ischemic chest pain associated with a rise in serum troponin above the upper limit of normal or (b) Unstable Angina (UA), as evidenced by a recent acceleration of the patient's angina unassociated with a rise in serum troponin but associated with angiographic evidence of a change in the patient's coronary anatomy. […] The ACS was characterized as being stent-related if there was evidence of significant in-stent stenosis or acute stent thrombosis. Out of Hospital Cardiac Arrest was defined as either a sudden death as evidenced on the patient's death certificate, or a non-fatal out of hospital cardiac arrest, defined as a recovery from sudden collapse associated with documented asystole, ventricular tachycardia or ventricular fibrillation.

[3] = No treatment (no antithrombotic), n=1
[4] = Treated with Aspirin + clopidogrel + warfarin, n=2
[5] = Treated with Aspirin + clopidogrel, n=33
[6] = Treated with Aspirin + warfarin, n=6
[7] = Treated with Aspirin alone, n=173
[8] = Treated with Clopidogrel alone or warfarin alone (no aspirin), n=28
[9] = Treated with Clopidogrel alone, n=12
[10] = Treated with Warfarin alone, n=16
[11] = Treated with at least aspirin, n=214
[12] = Treated with at least one antiplatelet drug (aspirin, clopidogrel or combinations), n=226
[13] = Treated with at least one antithrombotic drug (aspirin, clopidogrel or warfarin or combinations), n=242
[14] = of 282 randomized to treatment, colchicine 0.5 mg/day

Question: For `COc1cc2c(c(OC)c1OC)-c1ccc(OC)c(=O)cc1[C@@H](NC(C)=O)CC2` [colchicine, N[5,6,7,9-tetrahydro-1,2,3,10-tetratmethoxy 9-oxobenzo[a]heptalen-7-yl],(S)-acetamide], which “recurrence rate (actuarial rate)” value [1] is on record?
Answer: Its value is 24.0%.

Question: And the “stent related ACS with evidence of acute stent thrombosis, patients” value ([2]; 2 in each group)?
Answer: The value was 2.

Question: And the “stent related ACS with evidence of significant in-stent stenosis, patients” value ([2]; 2 in each group)?
Answer: The value was 2.

Question: And the “Primary Outcome, number of patients” value [2, 3]?
Answer: Its value is 0.

Question: What about the “Primary Outcome, percent” value [2, 3] of the same compound?
Answer: The value was “(0%)”.

Question: What about the “Primary Outcome, number of patients” value ([2]; Total, colchicine group n=243) of the same compound?
Answer: Its value is 11.

Question: What about the “Primary Outcome, percent” value ([2]; Total, colchicine group n=243) of the same compound?
Answer: The value was “(4.5%)”.

Question: What about the “Primary Outcome, number of patients” value [2, 4] of the same compound?
Answer: The value was 0.

Question: And the “Primary Outcome, percent” value [2, 4]?
Answer: Its value is “(0%)”.

Question: What about the “Primary Outcome, number of patients” value [2, 5] of the same compound?
Answer: The value was 3.

Question: What about the “Primary Outcome, percent” value [2, 5] of the same compound?
Answer: Its value is “(9%)”.

Question: What about the “Primary Outcome, number of patients” value [2, 6] of the same compound?
Answer: The value was 0.

Question: And the “Primary Outcome, percent” value [2, 6]?
Answer: Its value is “(0%)”.

Question: And the “Primary Outcome, number of patients” value [2, 7]?
Answer: Its value is 7.

Question: And the “Primary Outcome, percent” value [2, 7]?
Answer: The value was “(4%)”.

Question: And the “Primary Outcome, number of patients” value [2, 8]?
Answer: Its value is 1.

Question: And the “Primary Outcome, percent” value [2, 8]?
Answer: The value was “(3.45%)”.

Question: And the “Primary Outcome, number of patients” value [2, 9]?
Answer: Its value is 1.

Question: What about the “Primary Outcome, percent” value [2, 9] of the same compound?
Answer: Its value is “(8.3%)”.

Question: And the “Primary Outcome, number of patients” value [2, 10]?
Answer: The value was 0.

Question: And the “Primary Outcome, percent” value [2, 10]?
Answer: Its value is “(0%)”.

Question: What about the “Primary Outcome, number of patients” value [2, 11] of the same compound?
Answer: Its value is 10.

Question: And the “Primary Outcome, percent” value [2, 11]?
Answer: The value was “(4.67%)”.

Question: And the “Primary Outcome, number of patients” value [2, 12]?
Answer: The value was 11.

Question: And the “Primary Outcome, percent” value [2, 12]?
Answer: Its value is “(4.9%)”.

Question: What about the “Primary Outcome, number of patients” value [2, 13] of the same compound?
Answer: The value was 11.

Question: And the “Primary Outcome, percent” value [2, 13]?
Answer: Its value is 4.5%.

Question: And the “Primary Outcome, percent” value ([2]; Treated with at least one antithrombotic drug (aspirin, clopidogrel or warfarin or combinations), n=242, listed as Colchicine)?
Answer: The value was “(4.5%)”.

Question: What about the “patients who died of non-cardiac causes” value ([2]; colchicine group, all deaths) of the same compound?
Answer: Its value is 4 patients.

Question: What about the patients who died ([2]; colchicine group, control group ten) of the same compound?
Answer: The patients who died was 4 patients.

Question: What about the “AMI unrelated to stent disease, hazard ratio” value ([2]; colchicine vs control, 95% CI 0.08-0.76, p=0.014) of the same compound?
Answer: Its value is 0.25.

Question: What about the “UA unrelated to stent disease, hazard ratio” value ([2]; colchicine vs control, 95% CI 0.10-0.75, p=0.011) of the same compound?
Answer: Its value is 0.27.

Question: And the “ACS unrelated to stent disease, hazard ratio” value ([2]; colchicine vs control, 95% CI 0.12-0.55, p<0.001)?
Answer: Its value is 0.26.

Question: And the “ACS, hazard ratio” value ([2]; colchicine vs control, 95% CI 0.18-0.63, p<0.001)?
Answer: The value was 0.33.

Question: And the “primary outcome, number needed to treat” value ([2]; intention-to-treat, colchicine vs control)?
Answer: Its value is 11.

Question: What about the “primary outcome, hazard ratio” value ([2]; intention-to-treat, colchicine vs control, 95% CI 0.18-0.59, p<0.001) of the same compound?
Answer: Its value is 0.33.

Question: What about the “primary outcome, percent of patients” value ([2]; intention-to-treat, colchicine 0.5 mg/day, median follow up 36 months, control 16%) of the same compound?
Answer: Its value is 5.3%.

Question: And the “primary outcome (ACS, out of hospital cardiac arrest or non-cardio-embolic ischemic stroke), patients with event / patients assigned” value ([2]; intention-to-treat, colchicine 0.5 mg/day, median follow up 36 months, control 40/250)?
Answer: Its value is 15/282.

Question: And the “ACS unrelated to stent disease associated with an AMI, percent” value ([2]; intention-to-treat, control 5.6%)?
Answer: Its value is 1.4%.

Question: And the “ACS unrelated to stent disease, UA, percent” value ([2]; intention-to-treat, control 6.4%)?
Answer: The value was 1.8%.

Question: And the “ACS unrelated to stent disease, percent” value ([2]; intention-to-treat, control 12%)?
Answer: The value was 3.2%.

Question: And the “patients presenting with an ACS, percent” value ([2]; intention-to-treat, control 13.4%)?
Answer: Its value is 4.6%.

Question: What about the “ACS unrelated to stent disease associated with an AMI, patients / patients assigned” value ([2]; intention-to-treat, control 14/250) of the same compound?
Answer: The value was 4/282.

Question: What about the “ACS unrelated to stent disease, UA, patients / patients assigned” value ([2]; intention-to-treat, control 16/250) of the same compound?
Answer: The value was 5/282.

Question: What about the “ACS unrelated to stent disease, patients / patients assigned” value ([2]; intention-to-treat, control 30/250) of the same compound?
Answer: Its value is 9/282.

Question: And the “patients presenting with an ACS / patients assigned” value ([2]; intention-to-treat, control 34/250)?
Answer: Its value is 13/282.

Question: What about the “early intolerance due to gastrointestinal side effects, patients” value [2, 14] of the same compound?
Answer: Its value is 32.

Question: What about the “early intolerance due to gastrointestinal side effects, percent” value [2, 14] of the same compound?
Answer: Its value is 11%.

Question: What about the “events (primary outcome), hazard ratio” value ([2]; on-treatment analysis vs control, 95% CI 0.15-0.56, p<0.001) of the same compound?
Answer: The value was 0.29.

Question: What about the “events (primary outcome), percent” value ([2]; on-treatment analysis: compliant and tolerant beyond the first month, control 16%) of the same compound?
Answer: The value was 4.5%.

Question: And the “events (primary outcome), patients / patients compliant and tolerant” value ([2]; on-treatment analysis: compliant and tolerant to therapy beyond the first month, control 40/250)?
Answer: The value was 11/243.

Question: And the “out of hospital cardiac arrest and non-cardio-embolic ischemic stroke” value ([2]; treatment group vs control, infrequent events)?
Answer: The value was “also reduced”.
